Here are results for three molecules from publication PMC12752747, “ENT3: A lysosomal urate transporter regulating urate disposition and macrophage inflammation” (iScience, 2025).

In data set [1] the target is T1, ENT3 (equilibrative nucleoside transporter 3), ENT3-AA construct (Homo sapiens, UniProt Q9BZD2, L31A/L32A).
T1 construct: gene SLC29A3; ENT3-AA: full-length ENT3 redirected to the plasma membrane, dileucine L31L32 replaced with A31A32
T1 sequence (Q9BZD2 1-475 L31A/L32A): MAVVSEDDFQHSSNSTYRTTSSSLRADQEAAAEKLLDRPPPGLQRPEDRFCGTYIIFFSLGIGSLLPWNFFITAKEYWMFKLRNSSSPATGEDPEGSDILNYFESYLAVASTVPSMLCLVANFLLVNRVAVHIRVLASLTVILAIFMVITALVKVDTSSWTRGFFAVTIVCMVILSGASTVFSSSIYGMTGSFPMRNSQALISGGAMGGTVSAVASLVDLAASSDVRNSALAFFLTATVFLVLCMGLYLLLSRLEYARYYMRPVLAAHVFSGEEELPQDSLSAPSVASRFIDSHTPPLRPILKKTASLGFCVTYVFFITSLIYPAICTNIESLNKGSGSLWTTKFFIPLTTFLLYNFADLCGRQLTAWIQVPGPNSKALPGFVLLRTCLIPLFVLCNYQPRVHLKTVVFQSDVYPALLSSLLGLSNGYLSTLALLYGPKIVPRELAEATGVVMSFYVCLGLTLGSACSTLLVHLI
The experiment in a line: inhibition of […]urate ([…]) uptake in HEK293 cells transiently expressing ENT3-AA, pH […]. The class given is cell-based.

Substrate in data set [2]: O=c1[nH]c(=O)c2[nH]c(=O)[nH]c2[nH]1
The experiment in a line: cells, lysate or membranes. To be noted: proton-coupled transport. The class given is cell-based, Homo sapiens.

Regarding `OCCN(CCO)c1nc(N2CCCCC2)c2nc(N(CCO)CCO)nc(N3CCCCC3)c2n1` [dipyridamole], 7.71 µM corresponded to half-maximal inhibition in data set [1] (IC50). That is a single-digit micromolar value.

`O=[N+]([O-])c1ccc(CSc2ncnc3c2ncn3C2OC(CO)C(O)C2O)cc1` (stereo not drawn) [nitrobenzylthioinosine]: the IC50 (in general, the concentration that inhibits the measured activity by half) in data set [1] worked out at 21.7 µM. Compared with the last molecule, the IC50 is about 2.8-fold higher.

B1: ENT3 (equilibrative nucleoside transporter 3), ENT3-AA construct (Homo sapiens; L31A/L32A) (protein)
chain: T1 sequence (Q9BZD2 1-475 L31A/L32A)
notes: ENT3-AA: full-length ENT3 redirected to the plasma membrane, dileucine L31L32 replaced with A31A32
Consider B1, for which the Km (in general, the concentration of substrate that gives half-maximal velocity) in data set [2] was 1150 µM.
